The results in this text go back to paper PMC9779606, “Synthesis, Structural Characterization and Biological Activity Evaluation of Novel Cu(II) Complexes with 3-(trifluoromethyl)phenylthiourea Derivatives” (International Journal of Molecular Sciences, 2022).

The test system of assay [1] is S. aureus 522. The assay can be described thus: MIC, hospital methicillin-resistant strains (MRSA). Particulars: hospital MRSA strain S. aureus 522.
Assay [2] concerns SW620 (metastatic colon cancer). The assay can be described thus: Cytotoxicity, MTT assay. The conditions noted are these: 72 h, mean SD. In kind it is cell-based, human. As for the experimental part: (§1) MTT assay was performed as previously described. Experiments were repeated three times. […] Decreased relative MTT level means decreased cell viability.
(In general: Tetrazolium assays rely on reduction of a dye to a coloured formazan, in cell work by metabolically active cells.)

Assay [3] relates to SW480 (primary colon cancer). Put plainly: Cytotoxicity, MTT assay. In kind it is cell-based, human. The conditions noted are these: 72 h, mean SD. As for the experimental part:
as §1

For assay [4], the system named is PC3 (metastatic prostate cancer). Put plainly: Cytotoxicity, MTT assay. In kind it is cell-based, human. Particulars: 72 h, mean SD. How it is done:
as §1

The test system of assay [5] is S. aureus ATCC 25923. Put plainly: MIC, twofold serial microdilution, standard strains. Particulars: S. aureus ATCC 25923, standard strain.
Assay [6] relates to S. aureus 573. Put plainly: MIC, hospital methicillin-resistant strains (MRSA). Particulars: hospital MRSA strain S. aureus 573.
Assay [7] deals with S. aureus 497. Put plainly: MIC, hospital methicillin-resistant strains (MRSA). The conditions noted are these: hospital MRSA strain S. aureus 497.
For assay [8], the system named is S. aureus 568. Put plainly: MIC, hospital methicillin-resistant strains (MRSA). The conditions noted are these: hospital MRSA strain S. aureus 568.
The subject of assay [9] is C. albicans ATCC 10231. Put plainly: MIC, twofold serial microdilution, standard fungal strains. Particulars: C. albicans ATCC 10231, standard strain.
In assay [10] the test system is S. epidermidis 436. The assay can be described thus: MIC, hospital methicillin-resistant strains (MRSE). Particulars: hospital MRSE strain S. epidermidis 436.
In assay [11] the test system is C. albicans ATCC 90028. The assay can be described thus: MIC, twofold serial microdilution, standard fungal strains. The conditions noted are these: C. albicans ATCC 90028, standard strain.
Assay [12] relates to S. epidermidis 510. Put plainly: MIC, hospital methicillin-resistant strains (MRSE). The conditions noted are these: hospital MRSE strain S. epidermidis 510.
Assay [13] relates to E. coli NCTC 10538. The assay can be described thus: MIC, twofold serial microdilution, standard strains. The conditions noted are these: E. coli NCTC 10538, standard strain.
For assay [14], the system named is S. epidermidis 431. The assay can be described thus: MIC, hospital methicillin-resistant strains (MRSE). The conditions noted are these: hospital MRSE strain S. epidermidis 431.
For assay [15], the system named is C. parapsilosis ATCC 22019. Put plainly: MIC, twofold serial microdilution, standard fungal strains. The conditions noted are these: C. parapsilosis ATCC 22019, standard strain. In general terms: Dilution methods test growth across graded concentrations, often in twofold steps.
Assay [16] relates to methicillin-resistant Staphylococci (MRSA, MRSE). Particulars: for MIC level against hospital staphylococcal strains: all hospital staphylococcal strains, Table 5.
Assay [17] concerns S. aureus 496. Put plainly: MIC, hospital methicillin-resistant strains (MRSA). The conditions noted are these: hospital MRSA strain S. aureus 496.
Assay [18] deals with P. aeruginosa ATCC 27853. Put plainly: MIC, twofold serial microdilution, standard strains. Particulars: P. aeruginosa ATCC 27853, standard strain.
The subject of assay [19] is S. epidermidis 511. Put plainly: MIC, hospital methicillin-resistant strains (MRSE). Particulars: hospital MRSE strain S. epidermidis 511.
The subject of assay [20] is E. coli ATCC 25922. Put plainly: MIC, twofold serial microdilution, standard strains. Particulars: E. coli ATCC 25922, standard strain.
The subject of assay [21] is S. epidermidis 471. The assay can be described thus: MIC, hospital methicillin-resistant strains (MRSE). Particulars: hospital MRSE strain S. epidermidis 471.
The subject of assay [22] is staphylococcal isolates. The assay can be described thus: MIC, standard staphylococcal strains. Particulars: text summary of Table 4.
The test system of assay [23] is SW480, SW620, and PC3. The assay can be described thus: Cytotoxicity, MTT assay, all cancer cell lines. The assay is classed as cell-based, human. The conditions noted are these: 72 h, read-out: IC50 towards all investigated cancer cells. As for the experimental part: as §1
Assay [24] has as its target T1, S. aureus topoisomerase IV (Staphylococcus aureus, UniProt P0C1S7+P0C1U9).
T1 construct: purchased Inspiralis, Norwich, UK
The assay can be described thus: S. aureus topoisomerase IV decatenation assay. In kind it is biochemical. Particulars: kDNA decatenation, 30 min at 37 °C.
Experimental: The assay was performed using a S. aureus topoisomerase IV decantation kit (Inspiralis, Norwich, UK). Kinetoplast DNA (kDNA) was the substrate for topoisomerase IV. Firstly, 1 U of topoisomerase IV decatenated 200 ng of kDNA, in the dedicated decantation assay buffer supplied by the manufacturer. […] The reactions were terminated by adding an equal volume of STEB buffer (40% sucrose, 100 mM Tris-HCl pH 8, 1 mM EDTA, 0.5 mg/mL bromophenol blue), followed by extraction with 1 volume of chloroform/isoamyl alcohol (24:1). Then, 20 µL of the aqueous phase of each sample was loaded onto a 1% agarose gel. Electrophoresis was conducted in Tris-acetate-EDTA buffer for 1.5 h at 80 V. Gels were stained with ethidium bromide and visualized under UV light in a transilluminator (ChemiDoc MP, Bio-Rad, Hercules, CA, USA).

For assay [25], the target named is T2, S. aureus DNA gyrase (Staphylococcus aureus, UniProt P0A0K8+P20831).
T2 construct: purchased Inspiralis, Norwich, UK
T2 sequence (P20831 whole entry): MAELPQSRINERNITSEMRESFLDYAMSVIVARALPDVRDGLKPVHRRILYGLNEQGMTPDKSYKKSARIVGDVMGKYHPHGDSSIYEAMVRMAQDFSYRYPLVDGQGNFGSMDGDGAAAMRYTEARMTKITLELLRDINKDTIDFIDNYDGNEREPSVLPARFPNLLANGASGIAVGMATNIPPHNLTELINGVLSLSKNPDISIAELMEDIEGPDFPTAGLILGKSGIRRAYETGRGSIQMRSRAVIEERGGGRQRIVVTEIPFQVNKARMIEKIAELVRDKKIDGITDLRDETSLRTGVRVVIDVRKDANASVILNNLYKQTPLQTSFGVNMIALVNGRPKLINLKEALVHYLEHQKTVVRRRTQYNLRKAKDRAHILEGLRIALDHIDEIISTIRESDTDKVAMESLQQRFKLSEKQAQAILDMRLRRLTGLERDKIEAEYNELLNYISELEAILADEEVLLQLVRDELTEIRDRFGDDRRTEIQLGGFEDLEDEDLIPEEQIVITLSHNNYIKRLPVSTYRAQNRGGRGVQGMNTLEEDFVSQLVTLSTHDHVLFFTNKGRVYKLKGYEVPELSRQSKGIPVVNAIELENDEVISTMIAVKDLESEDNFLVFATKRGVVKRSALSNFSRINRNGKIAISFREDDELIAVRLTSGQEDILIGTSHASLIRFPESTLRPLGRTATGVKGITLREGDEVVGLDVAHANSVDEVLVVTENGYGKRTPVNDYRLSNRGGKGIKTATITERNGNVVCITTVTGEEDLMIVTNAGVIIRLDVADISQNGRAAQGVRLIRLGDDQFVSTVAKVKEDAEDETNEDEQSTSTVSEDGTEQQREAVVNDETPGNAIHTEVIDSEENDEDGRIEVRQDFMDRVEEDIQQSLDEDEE
T2 sequence (P0A0K8 whole entry): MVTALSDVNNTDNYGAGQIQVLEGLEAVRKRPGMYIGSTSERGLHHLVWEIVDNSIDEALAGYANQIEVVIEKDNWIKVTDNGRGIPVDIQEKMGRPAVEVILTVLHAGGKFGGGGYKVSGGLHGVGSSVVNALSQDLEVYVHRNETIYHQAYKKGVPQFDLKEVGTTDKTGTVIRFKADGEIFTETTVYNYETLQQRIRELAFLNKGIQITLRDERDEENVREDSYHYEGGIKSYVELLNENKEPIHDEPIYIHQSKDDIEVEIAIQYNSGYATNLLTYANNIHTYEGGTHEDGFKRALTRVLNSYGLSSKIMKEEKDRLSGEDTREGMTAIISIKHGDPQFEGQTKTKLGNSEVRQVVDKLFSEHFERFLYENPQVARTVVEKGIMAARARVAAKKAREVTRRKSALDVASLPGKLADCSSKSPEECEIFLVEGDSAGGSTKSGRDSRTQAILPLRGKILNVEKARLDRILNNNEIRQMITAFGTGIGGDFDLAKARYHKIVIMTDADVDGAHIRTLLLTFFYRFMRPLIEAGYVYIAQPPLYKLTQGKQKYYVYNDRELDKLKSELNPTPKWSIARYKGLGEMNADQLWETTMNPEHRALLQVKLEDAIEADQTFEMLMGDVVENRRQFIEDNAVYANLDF
The assay can be described thus: S. aureus DNA gyrase supercoiling assay. The assay is classed as biochemical. Particulars: pBR322 supercoiling, 30 min at 37 °C.
Experimental: The assay was performed using a S. aureus DNA Gyrase Supercoiling kit (Inspiralis, Norwich, UK). The activity of DNA topoisomerase II was determined by measuring the conversion of relaxed pBR322 DNA to its supercoiled form. The reaction mixture contained 500 ng of mMpBR322 plasmid DNA and 1 U of enzyme and different concentrations of the compound in a total reaction volume of 30 µL. The mixture was incubated for 30 min at 37 °C. The reactions were terminated by adding an equal volume of STEB buffer (40% sucrose, 100 mM Tris-HCl pH 8, 1 mM EDTA, 0.5 mg/mL bromophenol blue), followed by extraction with 1 volume of chloroform/isoamyl alcohol (24:1). Then, 20 µL of the aqueous phase of each sample was loaded onto a 1% agarose gel. Electrophoresis was conducted in Tris-acetate-EDTA buffer for 3 h at 50 V. Gels were stained with ethidium bromide and visualized under UV light in a transilluminator (ChemiDoc MP, Bio-Rad, Hercules, CA, USA).

The structures appear in SMILES notation. Like-named read-outs stand apart in the source and are kept apart here.

T1 sequence (P0C1S7 whole entry): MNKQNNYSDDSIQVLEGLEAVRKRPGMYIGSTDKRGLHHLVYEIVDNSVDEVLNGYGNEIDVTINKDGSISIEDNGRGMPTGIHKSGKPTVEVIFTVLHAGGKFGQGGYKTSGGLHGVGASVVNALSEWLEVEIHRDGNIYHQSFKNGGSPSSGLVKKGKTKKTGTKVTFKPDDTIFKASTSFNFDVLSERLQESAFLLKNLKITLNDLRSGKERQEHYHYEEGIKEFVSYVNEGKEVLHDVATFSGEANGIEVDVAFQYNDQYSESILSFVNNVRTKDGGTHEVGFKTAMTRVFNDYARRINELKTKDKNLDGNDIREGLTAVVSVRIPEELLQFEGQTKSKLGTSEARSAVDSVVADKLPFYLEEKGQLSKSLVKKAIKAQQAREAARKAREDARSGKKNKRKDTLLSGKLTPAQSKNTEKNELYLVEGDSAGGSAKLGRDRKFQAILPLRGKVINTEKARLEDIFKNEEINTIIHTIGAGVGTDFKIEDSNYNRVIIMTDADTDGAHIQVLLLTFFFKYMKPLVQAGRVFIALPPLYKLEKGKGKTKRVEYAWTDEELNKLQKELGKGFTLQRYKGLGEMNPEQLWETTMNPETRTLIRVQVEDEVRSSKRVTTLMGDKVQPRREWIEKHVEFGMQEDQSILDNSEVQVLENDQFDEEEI
T1 sequence (P0C1U9 whole entry): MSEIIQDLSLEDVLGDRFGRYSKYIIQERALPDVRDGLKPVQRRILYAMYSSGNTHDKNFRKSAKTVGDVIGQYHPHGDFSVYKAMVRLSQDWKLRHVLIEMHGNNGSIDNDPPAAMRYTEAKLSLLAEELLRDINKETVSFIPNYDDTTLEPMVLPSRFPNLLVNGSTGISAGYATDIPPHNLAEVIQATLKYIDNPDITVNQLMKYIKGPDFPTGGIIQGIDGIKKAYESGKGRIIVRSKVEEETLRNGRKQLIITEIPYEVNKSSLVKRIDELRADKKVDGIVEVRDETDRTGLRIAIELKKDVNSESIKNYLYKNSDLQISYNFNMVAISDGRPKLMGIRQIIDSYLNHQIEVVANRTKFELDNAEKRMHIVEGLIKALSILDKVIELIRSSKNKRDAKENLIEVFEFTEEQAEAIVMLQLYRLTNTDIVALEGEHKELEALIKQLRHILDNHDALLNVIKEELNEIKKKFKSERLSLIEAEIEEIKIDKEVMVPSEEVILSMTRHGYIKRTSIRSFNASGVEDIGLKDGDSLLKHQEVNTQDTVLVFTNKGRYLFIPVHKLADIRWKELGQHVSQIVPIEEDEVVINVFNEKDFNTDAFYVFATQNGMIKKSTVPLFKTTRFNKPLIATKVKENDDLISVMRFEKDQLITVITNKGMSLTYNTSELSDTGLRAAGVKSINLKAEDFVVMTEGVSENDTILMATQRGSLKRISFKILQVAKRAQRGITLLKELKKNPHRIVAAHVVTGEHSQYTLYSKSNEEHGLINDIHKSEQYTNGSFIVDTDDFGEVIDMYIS

Broadly, the MIC is the smallest concentration in the dilution series that meets the test's criterion for growth inhibition. By IC50 is commonly meant the concentration at which inhibition is half-maximal. For `CC(NC(=S)[N-]c1cccc(C(F)(F)F)c1)c1ccccc1.CC(NC(=S)[N-]c1cccc(C(F)(F)F)c1)c1ccccc1.[Cu+2]` (racemic) [Cu2, Copper(II) Complex with 1-(1-phenylethyl)-3-[3-(trifluoromethyl)phenyl]thiourea], the MIC came out at 16 µg/mL in [1]; 32 µg/mL in [5]; 8 µg/mL in assay [6]; 16 µg/mL in assay [7]; 8 µg/mL in [8]; 128 µg/mL in assay [9]. The MIC is 16 µg/mL in assay [10]; 128 µg/mL in assay [11]; 16 µg/mL in assay [12]; ≥256 µg/mL in [13]; 16 µg/mL in assay [14]; 128 µg/mL in assay [15]. In addition, the MIC in [17] is 16 µg/mL; in assay [18], ≥256 µg/mL; in [19], 16 µg/mL; in [20], ≥256 µg/mL; in assay [21] it was 16 µg/mL. Moreover, the values for the IC50 in assay [2], in assay [3] and in [4] were 23.3 µM, 41.6 ± 4.3 µM and 89.7 ± 1.9 µM, respectively. Besides, in assay [16], the “MIC level against hospital staphylococcal strains” value (shortened to “MIC level”) lay within 8 to 128 µg/mL.
Consider `FC(F)(F)c1cccc([N-]C(=S)NCCc2ccccc2)c1.FC(F)(F)c1cccc([N-]C(=S)NCCc2ccccc2)c1.O.[Cu+2]` [Cu1, Copper(II) Complex with 1-(2-phenylethyl)-3-[3-(trifluoromethyl)phenyl]thiourea], for which the MIC is 64 µg/mL in assay [1]; 64 µg/mL in assay [5]; 64 µg/mL in assay [6]; 64 µg/mL in assay [7]; 64 µg/mL in assay [8]; 128 µg/mL in assay [9]. Also, the MIC is 128 µg/mL in [10]; 128 µg/mL in assay [11]; 64 µg/mL in [12]; ≥256 µg/mL in assay [13]; 128 µg/mL in assay [14]; 64 µg/mL in [15]. For the same compound, the MIC in [17] is 64 µg/mL; in assay [18] it was 128 µg/mL; in [19] it was 128 µg/mL; in [20], ≥256 µg/mL; in [21] it was 64 µg/mL. Besides, the IC50 was 62.6 ± 4.9 µM in [2], 68.7 ± 3.4 µM in assay [3] and 100 ± 3.6 µM in assay [4]. In [16], the “MIC level” value fell in the range of 8 to 128 µg/mL.
Turning to `FC(F)(F)c1cccc([N-]C(=S)NCc2ccccc2)c1.FC(F)(F)c1cccc([N-]C(=S)NCc2ccccc2)c1.[Cu+2]` [Cu3, Copper(II) Complex with 1-benzyl-3-[3-(trifluoromethyl)phenyl]thiourea], the minimum inhibitory concentration (MIC) worked out at 64 µg/mL in assay [1]; 64 µg/mL in assay [5]; 64 µg/mL in assay [6]; 64 µg/mL in assay [7]; 64 µg/mL in assay [8]; 32 µg/mL in assay [9]. Moreover, the MIC in assay [10] was 64 µg/mL; in [11] it was 32 µg/mL; in assay [12], 64 µg/mL; in assay [13], ≥256 µg/mL; in assay [14], 64 µg/mL; in assay [15], 32 µg/mL. Moreover, the MIC is 64 µg/mL in assay [17]; ≥256 µg/mL in [18]; 64 µg/mL in [19]; ≥256 µg/mL in [20]; 64 µg/mL in assay [21]. Further, the IC50 was found to be 44.8 ± 5.6 µM in [2], 38.3 ± 3.1 µM in [3] and 49.4 ± 2.4 µM in [4]. The “MIC level” value in [16] was in the range of 8 to 128 µg/mL.
In the case of `FC(F)(F)c1cccc([N-]C(=S)Nc2cccc(Br)c2)c1.FC(F)(F)c1cccc([N-]C(=S)Nc2cccc(Br)c2)c1.[Cu+2]` [Cu4, Copper(II) Complex with 1-(3-bromophenyl)-3-[3-(trifluoromethyl)phenyl] thiourea], the MIC in assay [1] is 8 µg/mL; in assay [5], 8 µg/mL; in assay [6], 8 µg/mL; in [7] it was 8 µg/mL; in assay [8], 8 µg/mL; in assay [9], ≥256 µg/mL. The MIC in [10] was 8 µg/mL; in assay [11], ≥256 µg/mL; in assay [12] it was 8 µg/mL; in assay [13], 128 µg/mL; in [14] it was 8 µg/mL; in [15], ≥256 µg/mL. The MIC in assay [17] was determined as 8 µg/mL; in assay [18], 128 µg/mL; in assay [19] it was 8 µg/mL; in assay [20] it was 128 µg/mL; in assay [21], 8 µg/mL. The results for the IC50 in [2], in assay [3] and in [4] were 69.1 ± 1.8 µM, 89.8 ± 2.6 µM and 70.1 ± 5.3 µM, respectively. Further, the “MIC, staphylococcal isolates” value in assay [22] turned out to be 8 µg/mL. For the same compound, the “MIC level” value in [16] fell in the range of 8 to 128 µg/mL.
For the compound `O.O=[N+]([O-])c1cc(NC(=S)[N-]c2cccc(C(F)(F)F)c2)ccc1Cl.O=[N+]([O-])c1cc(NC(=S)[N-]c2cccc(C(F)(F)F)c2)ccc1Cl.[Cu+2]` [Cu5, Copper(II) Complex with 1-(4-chloro-3-nitrophenyl)-3-[3-(trifluoromethyl)phenyl]thiourea], the MIC in [1] was 2 µg/mL; in [5], 4 µg/mL; in [6], 2 µg/mL; in [7], 2 µg/mL; in assay [8], 2 µg/mL; in assay [9], 128 µg/mL. Moreover, the MIC in assay [10] is 2 µg/mL; in assay [11], 128 µg/mL; in [12], 4 µg/mL; in assay [13], >256 µg/mL; in assay [14], 2 µg/mL; in assay [15], 128 µg/mL. Further, the MIC is 2 µg/mL in assay [17]; >256 µg/mL in [18]; 4 µg/mL in assay [19]; 128 µg/mL in assay [20]; 4 µg/mL in assay [21]. In addition, the IC50 in assay [2] is 19.5 ± 1.3 µM; in [3], 14.8 ± 1.2 µM; in assay [4], 11.7 ± 0.9 µM; in assay [23] it was 11.7 to 19.5 µM. For the same compound, in assay [22], the “MIC, staphylococcal isolates” value came to 4 µg/mL. The “IC50 ± S.E.M. for Topo IV” value in assay [24] is 6.20 ± 0.50 µg/mL. For the same compound, the “MIC, methicillin-resistant Staphylococci” value in [16] (19 strains (above half) of tested hospital Staphylococci) turned out to be 2 µg/mL; in assay [16] (S. aureus 537, 585, and 586 strains and half of the S. epidermidis isolates) it was 4 µg/mL. In assay [25], the “IC50 ± S.E.M. for Gyrase” value is 16.80 ± 0.75 µg/mL.
